Source: the kinase profiling compilation of Christmann-Franck et al. (2016)

Legend:
Assay in all cases: radiometric filter-binding kinase assay, Kinase HotSpot
Conditions in all cases: compound 0.5 µM; ATP 10 µM
ABL2 (human) = ABL2 (human) (UniProt P42684)
ACVR1 (human) = ACVR1 (human) (UniProt Q04771)
BRSK2 (human) = BRSK2 (human) (UniProt Q8IWQ3)
CDC42BPA (human) = CDC42BPA (human) (UniProt Q5VT25)
CDK5 CDK5R1 p35 (human) = CDK5 CDK5R1 p35 (human) (UniProt Q00535+Q15078)
CDK9 CCNK (human) = CDK9 CCNK (human) (UniProt O75909+P50750)
CSK (human) = CSK (human) (UniProt P41240)
CSNK1D (human) = CSNK1D (human) (UniProt P48730)
DSTYK (human) = DSTYK (human) (UniProt Q6XUX3)
DYRK2 (human) = DYRK2 (human) (UniProt Q92630)
EPHA6 (human) = EPHA6 (human) (UniProt Q9UF33)
EPHA8 (human) = EPHA8 (human) (UniProt P29322)
EPHB1 (human) = EPHB1 (human) (UniProt P54762)
EPHB4 (human) = EPHB4 (human) (UniProt P54760)
FER (human) = FER (human) (UniProt P16591)
FGR (human) = FGR (human) (UniProt P09769)
HCK (human) = HCK (human) (UniProt P08631)
HIPK2 (human) = HIPK2 (human) (UniProt Q9H2X6)
IKBKB (human) = IKBKB (human) (UniProt O14920)
INSR (human) = INSR (human) (UniProt P06213)
MAP2K2 (human) = MAP2K2 (human) (UniProt P36507)
MAP3K10 (human) = MAP3K10 (human) (UniProt Q02779)
MAPK13 (human) = MAPK13 (human) (UniProt O15264)
MARK3 (human) = MARK3 (human) (UniProt P27448)
MARK4 (human) = MARK4 (human) (UniProt Q96L34)
MATK (human) = MATK (human) (UniProt P42679)
MERTK (human) = MERTK (human) (UniProt Q12866)
MINK1 (human) = MINK1 (human) (UniProt Q8N4C8)
MYLK2 (human) = MYLK2 (human) (UniProt Q9H1R3)
NEK11 (human) = NEK11 (human) (UniProt Q8NG66)
NUAK2 (human) = NUAK2 (human) (UniProt Q9H093)
PAK7 (human) = PAK7 (human) (UniProt Q9P286)
PIM3 (human) = PIM3 (human) (UniProt Q86V86)
PRKCD (human) = PRKCD (human) (UniProt Q05655)
PRKCG (human) = PRKCG (human) (UniProt P05129)
PRKCH (human) = PRKCH (human) (UniProt P24723)
RPS6KB2 (human) = RPS6KB2 (human) (UniProt Q9UBS0)
STK11 (human) = STK11 (human) (UniProt Q15831)
TAOK2 (human) = TAOK2 (human) (UniProt Q9UL54)
TGFBR1 (human) = TGFBR1 (human) (UniProt P36897)
TYRO3 (human) = TYRO3 (human) (UniProt Q06418)
ULK1 (human) = ULK1 (human) (UniProt O75385)

Sequence of RPS6KB2 (human) (Q9UBS0 whole entry, looked up): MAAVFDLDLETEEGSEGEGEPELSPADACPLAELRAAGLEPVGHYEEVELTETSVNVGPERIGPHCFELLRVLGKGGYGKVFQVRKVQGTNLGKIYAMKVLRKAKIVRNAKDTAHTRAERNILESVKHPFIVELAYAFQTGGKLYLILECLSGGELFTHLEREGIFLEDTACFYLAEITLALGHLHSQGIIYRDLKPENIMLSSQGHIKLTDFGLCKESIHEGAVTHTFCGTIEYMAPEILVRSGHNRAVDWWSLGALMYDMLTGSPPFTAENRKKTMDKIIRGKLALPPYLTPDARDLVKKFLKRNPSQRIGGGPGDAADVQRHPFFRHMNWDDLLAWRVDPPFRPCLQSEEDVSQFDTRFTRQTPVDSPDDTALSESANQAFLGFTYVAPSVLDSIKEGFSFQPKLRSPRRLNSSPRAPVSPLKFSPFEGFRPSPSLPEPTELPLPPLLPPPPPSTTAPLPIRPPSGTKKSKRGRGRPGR
Sequence of EPHA8 (human) (P29322 whole entry, looked up): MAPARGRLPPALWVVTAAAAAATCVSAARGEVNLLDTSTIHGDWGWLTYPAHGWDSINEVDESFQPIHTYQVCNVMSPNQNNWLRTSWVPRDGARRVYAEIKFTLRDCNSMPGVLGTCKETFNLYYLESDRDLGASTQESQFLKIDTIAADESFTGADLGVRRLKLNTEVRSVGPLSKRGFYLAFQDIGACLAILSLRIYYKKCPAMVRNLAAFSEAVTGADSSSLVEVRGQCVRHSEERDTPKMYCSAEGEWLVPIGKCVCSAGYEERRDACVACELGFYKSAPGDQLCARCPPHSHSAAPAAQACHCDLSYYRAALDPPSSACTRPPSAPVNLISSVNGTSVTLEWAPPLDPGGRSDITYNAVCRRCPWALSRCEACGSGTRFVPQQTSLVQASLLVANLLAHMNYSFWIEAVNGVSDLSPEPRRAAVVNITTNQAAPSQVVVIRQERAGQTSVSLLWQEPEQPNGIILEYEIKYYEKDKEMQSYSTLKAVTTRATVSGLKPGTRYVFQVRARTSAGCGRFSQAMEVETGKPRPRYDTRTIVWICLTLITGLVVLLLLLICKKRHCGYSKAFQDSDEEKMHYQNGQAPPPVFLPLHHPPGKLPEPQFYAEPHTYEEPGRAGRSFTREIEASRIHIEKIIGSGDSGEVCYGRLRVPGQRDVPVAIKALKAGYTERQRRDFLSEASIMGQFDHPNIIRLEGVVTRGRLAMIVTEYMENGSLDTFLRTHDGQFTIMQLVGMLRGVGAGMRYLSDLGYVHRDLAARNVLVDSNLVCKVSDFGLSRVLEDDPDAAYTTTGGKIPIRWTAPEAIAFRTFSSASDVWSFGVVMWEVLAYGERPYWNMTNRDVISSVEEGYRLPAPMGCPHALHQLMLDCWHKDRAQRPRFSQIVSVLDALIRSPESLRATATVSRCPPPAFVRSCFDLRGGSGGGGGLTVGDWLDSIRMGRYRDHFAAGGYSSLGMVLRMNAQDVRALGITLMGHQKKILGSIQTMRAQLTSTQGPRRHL
Sequence of FGR (human) (P09769 whole entry, looked up): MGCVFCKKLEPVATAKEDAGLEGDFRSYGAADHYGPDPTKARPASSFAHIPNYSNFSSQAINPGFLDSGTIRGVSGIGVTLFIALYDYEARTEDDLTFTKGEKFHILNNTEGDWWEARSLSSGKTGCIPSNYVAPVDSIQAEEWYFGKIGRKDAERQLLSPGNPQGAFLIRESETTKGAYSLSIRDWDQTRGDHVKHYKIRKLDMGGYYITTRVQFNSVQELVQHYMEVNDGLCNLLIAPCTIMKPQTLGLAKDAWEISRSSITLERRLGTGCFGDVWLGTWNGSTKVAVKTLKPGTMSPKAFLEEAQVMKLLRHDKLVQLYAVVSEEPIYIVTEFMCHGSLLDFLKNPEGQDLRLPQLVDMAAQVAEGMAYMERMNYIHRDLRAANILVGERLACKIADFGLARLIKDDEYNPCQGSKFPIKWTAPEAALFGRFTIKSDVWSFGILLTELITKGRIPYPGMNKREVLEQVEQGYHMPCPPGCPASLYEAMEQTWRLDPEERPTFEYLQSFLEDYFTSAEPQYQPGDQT
Sequence of CDK9 CCNK (human) (O75909 whole entry, looked up): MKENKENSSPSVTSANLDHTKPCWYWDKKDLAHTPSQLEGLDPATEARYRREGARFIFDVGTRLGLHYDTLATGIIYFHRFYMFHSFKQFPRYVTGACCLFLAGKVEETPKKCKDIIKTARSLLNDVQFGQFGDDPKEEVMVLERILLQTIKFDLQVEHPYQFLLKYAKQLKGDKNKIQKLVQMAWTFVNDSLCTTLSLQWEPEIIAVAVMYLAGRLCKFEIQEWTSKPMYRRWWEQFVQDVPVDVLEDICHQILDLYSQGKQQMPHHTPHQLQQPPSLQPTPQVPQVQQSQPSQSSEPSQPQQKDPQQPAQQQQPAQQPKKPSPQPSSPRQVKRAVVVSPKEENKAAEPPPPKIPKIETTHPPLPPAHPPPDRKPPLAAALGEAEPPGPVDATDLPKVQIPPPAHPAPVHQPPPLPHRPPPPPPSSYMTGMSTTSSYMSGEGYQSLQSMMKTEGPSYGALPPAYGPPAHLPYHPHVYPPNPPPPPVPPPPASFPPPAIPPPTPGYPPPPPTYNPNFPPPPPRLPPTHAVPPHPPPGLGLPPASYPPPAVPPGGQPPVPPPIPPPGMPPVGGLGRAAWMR
Sequence of CDK9 CCNK (human) (P50750 whole entry, looked up): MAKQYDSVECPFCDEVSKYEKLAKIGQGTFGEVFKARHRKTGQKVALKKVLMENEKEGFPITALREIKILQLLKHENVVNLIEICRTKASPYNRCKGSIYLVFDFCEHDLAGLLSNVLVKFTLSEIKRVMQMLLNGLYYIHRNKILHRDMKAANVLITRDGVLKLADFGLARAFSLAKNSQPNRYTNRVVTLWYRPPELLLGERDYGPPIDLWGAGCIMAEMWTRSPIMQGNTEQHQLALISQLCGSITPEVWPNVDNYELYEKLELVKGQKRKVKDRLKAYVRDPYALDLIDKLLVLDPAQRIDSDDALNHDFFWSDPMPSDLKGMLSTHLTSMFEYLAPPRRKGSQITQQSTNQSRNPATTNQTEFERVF
Sequence of NUAK2 (human) (Q9H093 whole entry, looked up): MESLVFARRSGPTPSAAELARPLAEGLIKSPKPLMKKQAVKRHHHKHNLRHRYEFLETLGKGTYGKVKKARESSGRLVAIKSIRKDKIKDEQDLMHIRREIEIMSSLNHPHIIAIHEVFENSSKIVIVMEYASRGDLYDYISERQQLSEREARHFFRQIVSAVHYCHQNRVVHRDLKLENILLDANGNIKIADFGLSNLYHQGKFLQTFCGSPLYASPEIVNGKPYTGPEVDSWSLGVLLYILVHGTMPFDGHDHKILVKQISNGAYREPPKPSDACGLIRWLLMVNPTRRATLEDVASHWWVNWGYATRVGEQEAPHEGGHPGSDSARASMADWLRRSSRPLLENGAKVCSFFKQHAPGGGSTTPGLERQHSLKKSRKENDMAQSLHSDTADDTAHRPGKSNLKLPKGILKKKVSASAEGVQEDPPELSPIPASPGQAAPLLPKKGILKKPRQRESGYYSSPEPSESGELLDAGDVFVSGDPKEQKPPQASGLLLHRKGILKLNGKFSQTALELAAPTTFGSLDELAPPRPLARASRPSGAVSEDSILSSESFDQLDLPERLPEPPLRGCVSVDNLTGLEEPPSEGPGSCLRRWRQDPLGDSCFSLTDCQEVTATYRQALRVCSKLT
Sequence of TYRO3 (human) (Q06418 whole entry, looked up): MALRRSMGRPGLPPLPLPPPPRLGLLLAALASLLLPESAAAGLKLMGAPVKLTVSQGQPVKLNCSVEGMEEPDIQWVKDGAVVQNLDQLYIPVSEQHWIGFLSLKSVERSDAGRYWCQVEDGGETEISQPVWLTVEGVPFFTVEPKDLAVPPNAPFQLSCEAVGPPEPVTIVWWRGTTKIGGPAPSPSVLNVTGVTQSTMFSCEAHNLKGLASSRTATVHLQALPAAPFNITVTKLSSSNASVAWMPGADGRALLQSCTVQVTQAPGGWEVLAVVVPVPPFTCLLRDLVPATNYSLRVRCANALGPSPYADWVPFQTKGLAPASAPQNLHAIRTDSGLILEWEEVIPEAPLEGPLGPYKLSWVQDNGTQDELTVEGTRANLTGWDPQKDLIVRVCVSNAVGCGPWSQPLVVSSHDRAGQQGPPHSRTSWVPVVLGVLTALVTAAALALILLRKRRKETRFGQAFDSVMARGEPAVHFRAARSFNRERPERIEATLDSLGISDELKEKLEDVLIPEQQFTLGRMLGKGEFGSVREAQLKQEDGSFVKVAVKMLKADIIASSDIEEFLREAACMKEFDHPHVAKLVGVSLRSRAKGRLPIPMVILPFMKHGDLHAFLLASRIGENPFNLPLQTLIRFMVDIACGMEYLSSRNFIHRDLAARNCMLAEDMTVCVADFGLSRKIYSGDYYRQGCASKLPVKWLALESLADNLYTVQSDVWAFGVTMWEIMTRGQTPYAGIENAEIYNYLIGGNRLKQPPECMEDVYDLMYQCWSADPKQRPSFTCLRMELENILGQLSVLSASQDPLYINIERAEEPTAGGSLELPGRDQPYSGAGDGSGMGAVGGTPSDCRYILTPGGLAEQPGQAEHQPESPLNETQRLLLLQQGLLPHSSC
Sequence of TGFBR1 (human) (P36897 whole entry, looked up): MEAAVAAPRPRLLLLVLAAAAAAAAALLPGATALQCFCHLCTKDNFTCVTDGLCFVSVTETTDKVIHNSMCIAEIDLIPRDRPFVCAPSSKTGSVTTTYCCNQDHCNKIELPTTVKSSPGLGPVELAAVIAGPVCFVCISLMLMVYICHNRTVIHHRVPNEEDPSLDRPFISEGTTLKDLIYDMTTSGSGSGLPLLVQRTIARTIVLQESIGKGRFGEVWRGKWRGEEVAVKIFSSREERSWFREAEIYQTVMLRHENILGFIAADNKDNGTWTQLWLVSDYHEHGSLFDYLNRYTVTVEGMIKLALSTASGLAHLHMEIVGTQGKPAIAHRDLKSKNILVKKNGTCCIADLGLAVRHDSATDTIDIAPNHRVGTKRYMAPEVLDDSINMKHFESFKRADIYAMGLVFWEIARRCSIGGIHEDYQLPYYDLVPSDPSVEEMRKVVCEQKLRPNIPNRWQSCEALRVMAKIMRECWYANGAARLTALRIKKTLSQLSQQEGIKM

Work on `Nc1ccc2ncnc(NCCc3ccc(Oc4ccccc4)cc3)c2c1` yielded a residual activity (ABL2 (human)) of 102%, a residual activity (ACVR1 (human)) of 91.8% and a residual activity (BRSK2 (human)) of 102%. For the same compound, the residual activity (CDC42BPA (human)) was 102%, the residual activity (CDK5 CDK5R1 p35 (human)) was 103% and the residual activity (CDK9 CCNK (human)) was 104%. For the same compound, the residual activity (CSK (human)) was 96.7%, the residual activity (CSNK1D (human)) was 100% and the residual activity (DSTYK (human)) was 101%. The residual activity (DYRK2 (human)) was 89.6%, the residual activity (EPHA6 (human)) was 92.8% and the residual activity (EPHA8 (human)) was 101%. For the same compound, the residual activity (EPHB1 (human)) was 97.9%, the residual activity (EPHB4 (human)) was 104% and the residual activity (FER (human)) was 99.5%. The residual activity (FGR (human)) was 101%, the residual activity (HCK (human)) was 96.4% and the residual activity (HIPK2 (human)) was 110%. It also gave a residual activity (IKBKB (human)) of 100%, a residual activity (INSR (human)) of 103% and a residual activity (MAP2K2 (human)) of 94.9%. The residual activity (MAP3K10 (human)) was 91.9%, the residual activity (MAPK13 (human)) was 100% and the residual activity (MARK3 (human)) was 86.4%. The residual activity (MARK4 (human)) was 105%, the residual activity (MATK (human)) was 89.6% and the residual activity (MERTK (human)) was 102%. The residual activity (MINK1 (human)) was 95.4%, the residual activity (MYLK2 (human)) was 97.6% and the residual activity (NEK11 (human)) was 105%. The residual activity (NUAK2 (human)) was 112%, the residual activity (PAK7 (human)) was 106% and the residual activity (PIM3 (human)) was 104%. The residual activity (PRKCD (human)) was 97.6%, the residual activity (PRKCG (human)) was 95.2% and the residual activity (PRKCH (human)) was 97.9%. For the same compound, the residual activity (RPS6KB2 (human)) was 99.2%, the residual activity (STK11 (human)) was 97.6% and the residual activity (TAOK2 (human)) was 102%. For the same compound, the residual activity (TGFBR1 (human)) was 97.7%, the residual activity (TYRO3 (human)) was 101% and the residual activity (ULK1 (human)) was 105%.
